{"source": "paper PMC5218480", "about": "(PLoS ONE, 2017)", "system": "MV-4-11 cells", "assay": "Gene expression microarray analysis (Affymetrix PrimeView) and GSEA", "format": "cell-based, human", "set-up": "RFU PODN (11730768_x_at) / Fold change /veh PODN (11730768_x_at) / RFU LINC00158 (11744669_a_at) / Fold change /veh LINC00158 (11744669_a_at) / RFU DUSP10 (11751237_a_at) / Fold change /veh DUSP10 (11751237_a_at) / RFU ID3 (11757404_x_at) / Fold change /veh ID3 (11757404_x_at) / RFU PLEKHG5 (11737974_s_at) / Fold change /veh PLEKHG5 (11737974_s_at) / RFU LRRC4B (11730491_at) / Fold change /veh LRRC4B (11730491_at) / RFU GIMAP4 (11747438_a_at) / Fold change /veh GIMAP4 (11747438_a_at) / RFU KRT8 (11758183_x_at) / Fold change /veh KRT8 (11758183_x_at) / RFU CNN1 (11734310_a_at) / Fold change /veh CNN1 (11734310_a_at) / RFU VPS37D (11726825_at) / Fold change /veh VPS37D (11726825_at) / RFU C10orf10 (11716522_x_at) / Fold change /veh C10orf10 (11716522_x_at) / RFU KIR2DL2 /// KIR2DL4 /// KIR2DL5A /// KIR2DL5B /// KIR2DS1 /// KIR2DS2 /// KIR2DS3 /// KIR2DS4 /// KIR3DL3 /// KIR3DL3 /// KIR3DS1 (11738374_at) / Fold change /veh KIR2DL2 /// KIR2DL4 /// KIR2DL5A /// KIR2DL5B /// KIR2DS1 /// KIR2DS2 /// KIR2DS3 /// KIR2DS4 /// KIR3DL3 /// KIR3DL3 /// KIR3DS1 (11738374_at) / RFU C1QL1 (11718748_at) / Fold change /veh C1QL1 (11718748_at) / RFU TMPRSS4 (11747572_a_at) / Fold change /veh TMPRSS4 (11747572_a_at) / RFU HAMP (11756126_x_at) / Fold change /veh HAMP (11756126_x_at) / RFU RNFT2 (11725882_a_at) / Fold change /veh RNFT2 (11725882_a_at) / RFU NR4A2 (11747474_a_at) / Fold change /veh NR4A2 (11747474_a_at) / RFU ABCC12 (11746883_a_at) / Fold change /veh ABCC12 (11746883_a_at) / RFU TMEM136 (11760407_x_at) / Fold change /veh TMEM136 (11760407_x_at) / RFU CLDN22 /// WWC2 (11732394_at) / Fold change /veh CLDN22 /// WWC2 (11732394_at) / RFU HLA-DPB1 (11760878_x_at) / Fold change /veh HLA-DPB1 (11760878_x_at) / RFU SPINT1 (11716480_a_at) / Fold change /veh SPINT1 (11716480_a_at) / RFU GAP43 (11754022_s_at) / Fold change /veh GAP43 (11754022_s_at) / RFU A4GNT (11735810_at) / Fold change /veh A4GNT (11735810_at) / RFU PRB3 (11715151_x_at) / Fold change /veh PRB3 (11715151_x_at) / RFU TUBB4B (11761932_at) / Fold change /veh TUBB4B (11761932_at) / RFU CAPN14 (11732068_a_at) / Fold change /veh CAPN14 (11732068_a_at) / RFU TMCC2 (11721928_a_at) / Fold change /veh TMCC2 (11721928_a_at) / RFU IRGQ (11745062_a_at) / Fold change /veh IRGQ (11745062_a_at) / RFU FAM174B (11720279_a_at) / Fold change /veh FAM174B (11720279_a_at) / RFU TMPRSS4 (11748680_a_at) / Fold change /veh TMPRSS4 (11748680_a_at) / RFU FAM212B (11763350_a_at) / Fold change /veh FAM212B (11763350_a_at) / RFU PLEKHG5 (11743358_a_at) / Fold change /veh PLEKHG5 (11743358_a_at) / RFU ZSCAN30 (11745921_a_at) / Fold change /veh ZSCAN30 (11745921_a_at) / RFU CMKLR1 (11741424_a_at) / Fold change /veh CMKLR1 (11741424_a_at) / RFU LOC101060620 /// MAPK8IP1 (11723275_at) / Fold change /veh LOC101060620 /// MAPK8IP1 (11723275_at) / RFU SPTSSB (11747773_x_at) / Fold change /veh SPTSSB (11747773_x_at) / RFU PRSS12 (11739890_at) / Fold change /veh PRSS12 (11739890_at) / RFU BIN1 (11741810_x_at) / Fold change /veh BIN1 (11741810_x_at) / RFU WNT11 (11732464_a_at) / Fold change /veh WNT11 (11732464_a_at) / RFU C10orf10 (11716521_a_at) / Fold change /veh C10orf10 (11716521_a_at) / RFU C5orf56 (11738089_at) / Fold change /veh C5orf56 (11738089_at) / RFU CYB561 (11721691_x_at) / Fold change /veh CYB561 (11721691_x_at) / RFU ANKRD19P (11752326_a_at) / Fold change /veh ANKRD19P (11752326_a_at) / RFU OR2T12 /// OR2T33 /// OR2T8 (11738714_s_at) / Fold change /veh OR2T12 /// OR2T33 /// OR2T8 (11738714_s_at) / RFU VCAN (11748164_a_at) / Fold change /veh VCAN (11748164_a_at) / RFU JSRP1 (11732532_at) / Fold change /veh JSRP1 (11732532_at) / RFU KRTAP10-11 (11738290_x_at) / Fold change /veh KRTAP10-11 (11738290_x_at) / RFU MYO3A (11730013_a_at) / Fold change /veh MYO3A (11730013_a_at) / RFU EBF3 (11725865_a_at) / Fold change /veh EBF3 (11725865_a_at) / RFU CAMK2N1 (11719241_x_at) / Fold change /veh CAMK2N1 (11719241_x_at) / RFU C5orf56 (11738088_a_at) / Fold change /veh C5orf56 (11738088_a_at) / RFU OLFML3 (11715873_a_at) / Fold change /veh OLFML3 (11715873_a_at) / RFU LOC100653217 /// NTM (11731650_a_at) / Fold change /veh LOC100653217 /// NTM (11731650_a_at) / RFU MAPK11 (11762145_a_at) / Fold change /veh MAPK11 (11762145_a_at) / RFU FIZ1 (11724087_x_at) / Fold change /veh FIZ1 (11724087_x_at) / RFU OASL (11726364_x_at) / Fold change /veh OASL (11726364_x_at) / RFU SOX15 (11748057_x_at) / Fold change /veh SOX15 (11748057_x_at) / RFU CD79A (11719716_a_at) / Fold change /veh CD79A (11719716_a_at) / RFU HIST1H1D (11736915_at) / Fold change /veh HIST1H1D (11736915_at) / RFU CASKIN2 (11723855_a_at) / Fold change /veh CASKIN2 (11723855_a_at) / RFU LOC730098 (11760151_x_at) / Fold change /veh LOC730098 (11760151_x_at) / RFU OR4N2 (11742367_at) / Fold change /veh OR4N2 (11742367_at) / RFU PRRT2 (11749266_a_at) / Fold change /veh PRRT2 (11749266_a_at) / RFU SNX32 (11753110_a_at) / Fold change /veh SNX32 (11753110_a_at) / RFU CDHR5 (11726645_a_at) / Fold change /veh CDHR5 (11726645_a_at) / RFU RCAN1 (11760418_a_at) / Fold change /veh RCAN1 (11760418_a_at) / RFU FAM167A (11723789_a_at) / Fold change /veh FAM167A (11723789_a_at) / RFU FAM26E (11764081_at) / Fold change /veh FAM26E (11764081_at) / RFU ISYNA1 (11749810_s_at) / Fold change /veh ISYNA1 (11749810_s_at) / RFU ACY1 (11761880_at) / Fold change /veh ACY1 (11761880_at) / RFU 11764098_at / Fold change /veh 11764098_at / RFU SAMD14 (11745864_x_at) / Fold change /veh SAMD14 (11745864_x_at) / RFU NPB (11741838_a_at) / Fold change /veh NPB (11741838_a_at) / RFU TMPRSS6 (11731388_a_at) / Fold change /veh TMPRSS6 (11731388_a_at) / RFU KRTAP10-2 (11738614_at) / Fold change /veh KRTAP10-2 (11738614_at) / RFU ARHGAP8 /// PRR5-ARHGAP8 (11727945_x_at) / Fold change /veh ARHGAP8 /// PRR5-ARHGAP8 (11727945_x_at) / RFU KRTAP5-7 /// NADSYN1 (11734609_at) / Fold change /veh KRTAP5-7 /// NADSYN1 (11734609_at) / RFU RASL12 (11751679_a_at) / Fold change /veh RASL12 (11751679_a_at) / RFU CDKN2B (11736163_a_at) / Fold change /veh CDKN2B (11736163_a_at) / RFU PRF1 (11729649_at) / Fold change /veh PRF1 (11729649_at) / RFU, ZNF638 /// ZNF638-IT1 / Fold change vs veh, ZNF638 /// ZNF638-IT1 / RFU, PANK3 / Fold change vs veh, PANK3 / RFU, SH3YL1 / Fold change vs veh, SH3YL1 / RFU, ZEB2 / Fold change vs veh, ZEB2 / RFU, NRIP1 / Fold change vs veh, NRIP1 / RFU, PTTG1IP / Fold change vs veh, PTTG1IP / RFU, CAPN2 / Fold change vs veh, CAPN2 / RFU, MED14 / Fold change vs veh, MED14 / RFU, SNORA58 / Fold change vs veh, SNORA58 / RFU, C1orf63 / Fold change vs veh, C1orf63 / RFU, LRRFIP1 / Fold change vs veh, LRRFIP1 / RFU, NDUFAF7 / Fold change vs veh, NDUFAF7 / RFU, SLC12A2 / Fold change vs veh, SLC12A2 / RFU, IBTK / Fold change vs veh, IBTK / RFU, ESF1 / Fold change vs veh, ESF1 / Fold change vs veh, TMEM50B / RFU, TAOK1 / Fold change vs veh, TAOK1 / RFU, ACBD3 / Fold change vs veh, ACBD3 / RFU, TMA16 / Fold change vs veh, TMA16 / RFU, RWDD3 / Fold change vs veh, RWDD3 / RFU, BCAT1 / Fold change vs veh, BCAT1 / RFU, EDEM3 / Fold change vs veh, EDEM3 / RFU, TMEM33 / Fold change vs veh, TMEM33 / RFU, WDR75 / Fold change vs veh, WDR75 / RFU, AHCTF1 / Fold change vs veh, AHCTF1 / RFU, TFRC / Fold change vs veh, TFRC / RFU, ZDHHC17 / Fold change vs veh, ZDHHC17 / RFU, NOM1 / Fold change vs veh, NOM1 / RFU, ARL8B / Fold change vs veh, ARL8B / RFU, ZBTB11 / Fold change vs veh, ZBTB11 / RFU, TAMM41 / Fold change vs veh, TAMM41 / RFU, KIAA1704 /// LOC100996395 / Fold change vs veh, KIAA1704 /// LOC100996395 / RFU, ING1 / Fold change vs veh, ING1 / RFU, TRMT61B / Fold change vs veh, TRMT61B / RFU, FUBP3 / Fold change vs veh, FUBP3 / RFU, TP53 / Fold change vs veh, TP53 / RFU, TNKS2 / Fold change vs veh, TNKS2 / RFU, ZFP14 / Fold change vs veh, ZFP14 / RFU, ACTR2 / Fold change vs veh, ACTR2 / RFU, PPP3R1 / Fold change vs veh, PPP3R1 / RFU, PIK3R1 / Fold change vs veh, PIK3R1 / RFU, HNRNPA1 / Fold change vs veh, HNRNPA1 / RFU, RNF170 / Fold change vs veh, RNF170 / RFU, ZNF28 / Fold change vs veh, ZNF28 / RFU, RNGTT / Fold change vs veh, RNGTT / RFU, OGT / Fold change vs veh, OGT / RFU, BRD1 / Fold change vs veh, BRD1 / RFU, MARS / Fold change vs veh, MARS / RFU, ZNF655 / Fold change vs veh, ZNF655 / RFU, FAHD1 / Fold change vs veh, FAHD1 / RFU, BDP1 / Fold change vs veh, BDP1 / RFU, LRRCC1 / Fold change vs veh, LRRCC1 / RFU, ARID1A / Fold change vs veh, ARID1A / RFU, ZNF146 / Fold change vs veh, ZNF146 / RFU, ZNF330 / Fold change vs veh, ZNF330 / RFU, GPN3 / Fold change vs veh, GPN3 / RFU, C9orf123 / Fold change vs veh, C9orf123 / RFU, N4BP2L2 / Fold change vs veh, N4BP2L2 / RFU, ARFIP1 / Fold change vs veh, ARFIP1 / RFU, FAM179B / Fold change vs veh, FAM179B / RFU, BCL10 / Fold change vs veh, BCL10 / RFU, UHRF1BP1L / Fold change vs veh, UHRF1BP1L / RFU, BET1 / Fold change vs veh, BET1 / RFU, CNOT2 / Fold change vs veh, CNOT2 / RFU, ZNF268 / Fold change vs veh, ZNF268 / Fold change vs veh, ZNF507 / RFU, DGCR2 / Fold change vs veh, DGCR2 / RFU, WDSUB1 / Fold change vs veh, WDSUB1 / Fold change vs veh, HSP90B1 /// MIR3652 / RFU, ADSS / Fold change vs veh, ADSS / RFU, GK / Fold change vs veh, GK / RFU, ZNF148 / Fold change vs veh, ZNF148 / RFU, TAF9 / Fold change vs veh, TAF9 / RFU, SLC1A5 / Fold change vs veh, SLC1A5 / RFU, SLMO2 / Fold change vs veh, SLMO2 / RFU, ABCC4 / Fold change vs veh, ABCC4 / RFU, LOC101060439 /// RAP1B / Fold change vs veh, LOC101060439 /// RAP1B / RFU, RFX7 / Fold change vs veh, RFX7 / RFU, GTPBP10 / Fold change vs veh, GTPBP10 / RFU, CNEP1R1 / Fold change vs veh, CNEP1R1 / RFU, BIVM-ERCC5 /// ERCC5 / Fold change vs veh, BIVM-ERCC5 /// ERCC5 / RFU, ILF3 / Fold change vs veh, ILF3 / RFU 11762660_at / Fold change /veh 11762660_at / RFU VCAN (11757783_s_at) / Fold change /veh VCAN (11757783_s_at) / RFU DDX43 (11728927_at) / Fold change /veh DDX43 (11728927_at) / RFU KRT8 (11758188_x_at) / Fold change /veh KRT8 (11758188_x_at) / RFU NKD1 (11759106_at) / Fold change /veh NKD1 (11759106_at) / RFU SRD5A1 (11742802_a_at) / Fold change /veh SRD5A1 (11742802_a_at) / RFU TPSAB1 /// TPSB2 (11721975_s_at) / Fold change /veh TPSAB1 /// TPSB2 (11721975_s_at) / RFU GSTM3 (11746129_a_at) / Fold change /veh GSTM3 (11746129_a_at) / RFU IL23R (11737362_x_at) / Fold change /veh IL23R (11737362_x_at) / RFU TMEM51 (11727254_a_at) / Fold change /veh TMEM51 (11727254_a_at) / RFU PIWIL2 (11732686_x_at) / Fold change /veh PIWIL2 (11732686_x_at) / RFU ORM1 (11744905_x_at) / Fold change /veh ORM1 (11744905_x_at) / RFU CCDC152 (11743942_at) / Fold change /veh CCDC152 (11743942_at) / RFU ECM1 (11717891_a_at) / Fold change /veh ECM1 (11717891_a_at) / RFU IL23R (11748794_a_at) / Fold change /veh IL23R (11748794_a_at) / RFU TNFAIP8L3 (11732012_x_at) / Fold change /veh TNFAIP8L3 (11732012_x_at) / RFU MBOAT4 (11741988_at) / Fold change /veh MBOAT4 (11741988_at) / RFU 11764193_at / Fold change /veh 11764193_at / RFU TMEM53 (11763286_at) / Fold change /veh TMEM53 (11763286_at) / RFU MAGEB2 (11727129_at) / Fold change /veh MAGEB2 (11727129_at) / RFU TMEM200A (11744735_a_at) / Fold change /veh TMEM200A (11744735_a_at) / RFU CCDC152 (11751479_a_at) / Fold change /veh CCDC152 (11751479_a_at) / RFU FAM211A (11726209_a_at) / Fold change /veh FAM211A (11726209_a_at) / RFU RGS16 (11746705_a_at) / Fold change /veh RGS16 (11746705_a_at) / RFU VCAN (11755009_s_at) / Fold change /veh VCAN (11755009_s_at) / RFU RHOB (11743442_s_at) / Fold change /veh RHOB (11743442_s_at) / RFU RGS16 (11720943_a_at) / Fold change /veh RGS16 (11720943_a_at) / RFU RGS16 (11720944_at) / Fold change /veh RGS16 (11720944_at) / RFU, VPS4B / Fold change vs veh, VPS4B / RFU, CREB1 / Fold change vs veh, CREB1 / RFU, DNAJC13 / Fold change vs veh, DNAJC13 / RFU, GNAQ / Fold change vs veh, GNAQ / RFU, CDK5R1 / Fold change vs veh, CDK5R1 / RFU, ZRANB3 / Fold change vs veh, ZRANB3 / RFU, CUL4A / Fold change vs veh, CUL4A / RFU, CCNY / Fold change vs veh, CCNY / RFU, UFL1 / Fold change vs veh, UFL1 / RFU, COG3 / Fold change vs veh, COG3 / RFU, DIAPH2 / Fold change vs veh, DIAPH2 / RFU, SKA2 / Fold change vs veh, SKA2 / RFU, AFF3 / Fold change vs veh, AFF3 / RFU, LMF1 / Fold change vs veh, LMF1 / RFU, IPO11 / Fold change vs veh, IPO11 / RFU, DFFB / Fold change vs veh, DFFB / RFU, FOXP1 / Fold change vs veh, FOXP1 / RFU, CARD8 / Fold change vs veh, CARD8 / RFU, STRN3 / Fold change vs veh, STRN3 / RFU, ADK / Fold change vs veh, ADK / RFU, RASSF2 / Fold change vs veh, RASSF2 / RFU, WIPF1 / Fold change vs veh, WIPF1 / RFU, LARP1B / Fold change vs veh, LARP1B / RFU, RASA1 / Fold change vs veh, RASA1 / RFU, RB1 / Fold change vs veh, RB1 / RFU, PPFIA1 / Fold change vs veh, PPFIA1 / RFU, MAT2A / Fold change vs veh, MAT2A / RFU, CCT5 / Fold change vs veh, CCT5 / RFU, WDR92 / Fold change vs veh, WDR92 / RFU, CUX1 / Fold change vs veh, CUX1 / RFU, TTC7A / Fold change vs veh, TTC7A / RFU, TMEM135 / Fold change vs veh, TMEM135 / RFU, DEPTOR / Fold change vs veh, DEPTOR / RFU, CPM / Fold change vs veh, CPM / RFU, DNAJB6 / Fold change vs veh, DNAJB6 / RFU, CACNA2D3 / Fold change vs veh, CACNA2D3 / RFU, DTX4 / Fold change vs veh, DTX4 / RFU, TFCP2 / Fold change vs veh, TFCP2 / RFU, GMCL1 /// GMCL1P1 / Fold change vs veh, GMCL1 /// GMCL1P1 / RFU, AEBP2 / Fold change vs veh, AEBP2 / RFU, SNHG1 /// SNORD22 /// SNORD25 /// SNORD26 /// SNORD27 /// SNORD28 /// SNORD29 /// SNORD31 / Fold change vs veh, SNHG1 /// SNORD22 /// SNORD25 /// SNORD26 /// SNORD27 /// SNORD28 /// SNORD29 /// SNORD31 / Fold change (Aza/veh), C12orf56 (ProbeSet 11735607_a_at) / Fold change (ACY-1035/veh), C12orf56 (ProbeSet 11735607_a_at) / Fold change (Aza/veh), FGFR1OP (ProbeSet 11751329_s_at) / Fold change (ACY-1035/veh), FGFR1OP (ProbeSet 11751329_s_at) / Fold change (Aza/veh), VPS36 (ProbeSet 11739960_a_at) / Fold change (ACY-1035/veh), VPS36 (ProbeSet 11739960_a_at) / RFU SYPL1 (11715823_x_at) / Fold change /veh SYPL1 (11715823_x_at) / RFU IGFBP7 (11715501_s_at) / Fold change /veh IGFBP7 (11715501_s_at) / RFU REEP3 (11722064_at) / Fold change /veh REEP3 (11722064_at) / RFU IGLL1 (11728026_x_at) / Fold change /veh IGLL1 (11728026_x_at): dose or concentration left out as unconfirmed", "conditions": "ProbeSet 11749645_x_at; LIST B"}
{"compound": "Nc1ncn([C@@H]2O[C@H](CO)[C@@H](O)[C@H]2O)c(=O)n1", "note": "[azacitidine]", "values": [{"measurement": "Fold change vs veh, ZNF268", "result": 0.97}]}
